This passage reports IC50 and inhibition results from publication PMC11081522, “In silico identification of a novel Cdc2‐like kinase 2 (CLK2) inhibitor in triple negative breast cancer” (Protein Science : A Publication of the Protein Society, 2024).

Holding throughout (format): biochemical
The target in assay [1] is T1, CLK2 (Cdc2-like kinase 2) (Homo sapiens, UniProt P49760).
T1 construct: commercial enzyme of Thermo Fisher SelectScreen service
Nature of the assay: Z'LYTE FRET peptide kinase assay. From the text:
Z'LYTE FRET peptide kinase assay on CLK2 (Cdc2-like kinase 2)

The target in another assay is T2, CLK3 (Homo sapiens, UniProt P49761).
T2 construct: kinase selectivity panel enzyme
In words: kinase selectivity panel.

Assay [2] concerns the target T3, TTK (Threonine tyrosine kinase; Monopolar Spindle 1, Mps1) (Homo sapiens, UniProt P33981).
T3 construct: kinase selectivity panel enzyme
T3 sequence (P33981 1-857): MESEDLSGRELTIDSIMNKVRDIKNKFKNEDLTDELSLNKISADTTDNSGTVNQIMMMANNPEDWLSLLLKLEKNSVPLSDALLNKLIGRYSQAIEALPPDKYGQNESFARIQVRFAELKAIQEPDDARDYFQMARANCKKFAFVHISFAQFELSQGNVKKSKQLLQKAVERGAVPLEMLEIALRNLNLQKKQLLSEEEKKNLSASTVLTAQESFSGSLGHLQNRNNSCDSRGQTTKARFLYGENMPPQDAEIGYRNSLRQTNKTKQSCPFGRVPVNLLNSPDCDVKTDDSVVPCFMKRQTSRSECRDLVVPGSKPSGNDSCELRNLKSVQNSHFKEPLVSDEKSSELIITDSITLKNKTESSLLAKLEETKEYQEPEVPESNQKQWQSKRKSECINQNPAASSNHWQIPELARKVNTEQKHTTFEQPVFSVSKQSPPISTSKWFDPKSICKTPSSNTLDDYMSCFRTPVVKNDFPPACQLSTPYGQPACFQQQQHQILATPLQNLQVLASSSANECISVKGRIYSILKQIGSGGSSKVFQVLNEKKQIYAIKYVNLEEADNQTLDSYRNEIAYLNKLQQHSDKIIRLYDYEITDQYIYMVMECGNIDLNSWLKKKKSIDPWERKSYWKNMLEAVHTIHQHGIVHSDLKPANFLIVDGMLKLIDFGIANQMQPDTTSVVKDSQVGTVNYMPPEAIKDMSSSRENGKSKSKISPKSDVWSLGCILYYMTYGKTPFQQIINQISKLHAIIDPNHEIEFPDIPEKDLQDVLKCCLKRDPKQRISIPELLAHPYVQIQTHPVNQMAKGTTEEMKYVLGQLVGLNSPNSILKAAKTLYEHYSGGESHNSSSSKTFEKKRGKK
Nature of the assay: kinase selectivity panel.

SMILES strings stand for the structures. Where two headings read alike, the source gives them in different places.

T1 sequence (P49760 whole entry): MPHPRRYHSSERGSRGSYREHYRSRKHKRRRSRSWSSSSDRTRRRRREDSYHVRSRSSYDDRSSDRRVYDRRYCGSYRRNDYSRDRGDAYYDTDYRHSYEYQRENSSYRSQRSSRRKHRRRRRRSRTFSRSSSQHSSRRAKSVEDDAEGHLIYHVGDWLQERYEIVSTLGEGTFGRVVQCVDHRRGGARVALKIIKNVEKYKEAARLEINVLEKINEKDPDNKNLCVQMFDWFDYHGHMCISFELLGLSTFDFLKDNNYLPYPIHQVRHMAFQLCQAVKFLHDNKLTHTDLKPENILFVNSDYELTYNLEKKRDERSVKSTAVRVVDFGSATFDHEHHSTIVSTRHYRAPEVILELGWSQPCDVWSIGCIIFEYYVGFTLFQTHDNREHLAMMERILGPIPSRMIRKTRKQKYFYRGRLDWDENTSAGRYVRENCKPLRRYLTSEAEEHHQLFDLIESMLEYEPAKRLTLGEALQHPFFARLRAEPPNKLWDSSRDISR
T2 sequence (P49761 whole entry): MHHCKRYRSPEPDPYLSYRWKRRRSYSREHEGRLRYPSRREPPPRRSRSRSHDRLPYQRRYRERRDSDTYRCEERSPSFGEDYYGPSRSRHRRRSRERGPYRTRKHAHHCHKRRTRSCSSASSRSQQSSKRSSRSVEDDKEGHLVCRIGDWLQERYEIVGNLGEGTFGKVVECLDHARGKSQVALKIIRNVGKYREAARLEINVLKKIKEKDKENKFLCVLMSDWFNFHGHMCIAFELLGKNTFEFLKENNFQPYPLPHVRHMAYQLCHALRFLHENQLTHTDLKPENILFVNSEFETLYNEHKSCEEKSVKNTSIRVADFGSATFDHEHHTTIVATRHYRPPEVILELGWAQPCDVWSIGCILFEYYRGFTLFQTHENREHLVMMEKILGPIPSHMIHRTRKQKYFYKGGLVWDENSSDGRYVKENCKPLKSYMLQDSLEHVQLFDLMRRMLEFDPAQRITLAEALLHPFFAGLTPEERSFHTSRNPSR

On to `CSc1nc(Cl)cc(Sc2nc(N)nc3nc[nH]c23)n1` [compound 51564, 51564], for which the half-maximal inhibitory concentration (IC50) in assay [1] (ATP and peptide substrate, 1% DMSO, room temperature, 60 min) was 1330 nM.
`Nc1ncnc2oc(-c3ccccc3)c(-c3ccccc3)c12` [compound 153298, 153298] showed an IC50 in assay [1] of 2240 nM.
For `CC(c1ccccc1)n1c2ccccc2c2c(N)ncnc21` (centres unmarked) [compound 670551, Compound 670551], the IC50 in assay [1] was 620 nM. The values for the inhibition at 1 µM (at CLK3; in assay [2]) were 46% and 43%, respectively.
